Reference: patent publication US8846908B2, “Tricyclic carbamate JAK inhibitors” (Rigel Pharmaceuticals, Inc., priority 2008, dated 2014)

Target: BaF3 V617F cells (Homo sapiens, UniProt O60674, V617F, cells depend on it)
Assay: Proliferation assay, BaF3 V617F cells (Cell Titer-Glo)
Assay type: cell-based, mouse
Conditions: proliferation for 72 hours at 37° C., stated to show ability to inhibit JAK2 activity, read-out: IC50 (the source's name)
Method: BaF3 V617F cells are maintained and plated in RPMI with 10% FBS. Plating density for these cells is 1×10^5 cells/mL.
The cells were resuspended in a corresponding medium at a required cell density (see above). 100μ of cell suspension was added to each well of a flat bottom 96 well white plate. The compound was serially diluted in DMSO from 5 mM in 3-fold dilutions, and then diluted 1:250 in the RPMI 1640 medium containing 5% FBS and pen/strep. 100 μL of resulting 2× compound solution was added per well in duplicate and the cells were allowed to proliferate for 72 hours at 37° C.
Proliferation was measured using Cell Titer-Glo. The substrate was thawed and allowed to come to room temperature. After removal of top 100 μL of medium from each well, 100 μL of the premixed Cell Titer-Glo reagent was added to each well. The plates were mixed on an orbital shaker for three minutes to induce lysis and incubated at ambient temperature for an additional five minutes to allow the signal to equilibrate. The Luminescence was read on the Wallac Plate Reader.
The results of the ability of the compounds of the invention to inhibit JAK2 activity, when tested in the above assay, are shown in the following Table 2 wherein the level of activity (i.e., the IC50) for each compound is indicated in Table 2. The compound numbers in Table 2 refers to the compounds disclosed herein as being prepared by the methods disclosed herein.

Sequence of BaF3 V617F cells (O60674 whole entry V617F): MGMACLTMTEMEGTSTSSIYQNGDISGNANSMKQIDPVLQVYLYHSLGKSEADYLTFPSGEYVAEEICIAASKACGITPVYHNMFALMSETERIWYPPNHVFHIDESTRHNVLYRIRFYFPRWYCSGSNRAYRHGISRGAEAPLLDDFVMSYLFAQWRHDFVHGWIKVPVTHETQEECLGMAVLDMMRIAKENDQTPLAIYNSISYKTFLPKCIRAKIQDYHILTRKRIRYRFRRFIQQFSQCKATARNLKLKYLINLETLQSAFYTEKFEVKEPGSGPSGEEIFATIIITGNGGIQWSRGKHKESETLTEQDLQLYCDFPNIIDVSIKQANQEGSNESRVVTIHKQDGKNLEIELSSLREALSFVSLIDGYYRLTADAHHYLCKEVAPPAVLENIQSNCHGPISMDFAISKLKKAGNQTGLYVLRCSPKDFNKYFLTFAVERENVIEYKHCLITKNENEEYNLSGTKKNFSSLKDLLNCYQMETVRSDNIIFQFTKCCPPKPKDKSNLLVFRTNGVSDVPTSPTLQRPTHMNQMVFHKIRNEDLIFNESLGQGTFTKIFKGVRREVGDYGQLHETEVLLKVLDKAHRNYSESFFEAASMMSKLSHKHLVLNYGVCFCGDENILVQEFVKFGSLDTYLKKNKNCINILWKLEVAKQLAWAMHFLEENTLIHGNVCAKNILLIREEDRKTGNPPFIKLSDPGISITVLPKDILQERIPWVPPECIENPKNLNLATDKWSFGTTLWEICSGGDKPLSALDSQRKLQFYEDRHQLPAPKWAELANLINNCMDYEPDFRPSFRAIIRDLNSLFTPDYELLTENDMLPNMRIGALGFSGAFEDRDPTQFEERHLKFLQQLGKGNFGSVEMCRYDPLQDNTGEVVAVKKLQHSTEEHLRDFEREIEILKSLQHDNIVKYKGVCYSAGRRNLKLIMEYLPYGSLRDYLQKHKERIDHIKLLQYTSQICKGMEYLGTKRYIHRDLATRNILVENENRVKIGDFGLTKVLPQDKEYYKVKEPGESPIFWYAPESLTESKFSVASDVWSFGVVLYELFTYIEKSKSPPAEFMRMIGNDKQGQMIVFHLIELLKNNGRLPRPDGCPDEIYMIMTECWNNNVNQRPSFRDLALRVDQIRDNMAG

SMILES	GI50 [nM]
Cc1cnc(Nc2ccc3c(c2)[C@@H]2NC(=O)O[C@@H]2C3)nc1Nc1ccc(OCc2ccccn2)cc1 [Compound 28, 5-Methyl-N2-[(3aS,8aR)-2-oxo-3,3a,8,8a-tetrahydro-2H-indeno[1,2-d]oxazol-5-yl]-N4-[4-(pyridin-2-ylmethoxy)phenyl]-2,4-pyrimidinediamine]	250 to 500
O=C1N[C@@H]2c3cc(Nc4ncc(F)c(Nc5ccc(CCc6ccncc6)cc5)n4)ccc3C[C@@H]2O1 [Compound 29, 5-Fluoro-N2-[(3aR,8aS)-2-oxo-3,3a,8,8a-tetrahydro-2H-indeno[1,2-d]oxazol-5-yl]-N4-[4-[2-(pyridin-4-yl)ethyl]phenyl]-2,4-pyrimidinediamine]	250 to 500
O=C1N[C@H]2c3cc(Nc4ncc(F)c(Nc5ccc(OCc6ccccn6)cc5)n4)ccc3C[C@H]2O1 [Compound 30, 5-Fluoro-N2-[(3aS,8aR)-2-oxo-3,3a,8,8a-tetrahydro-2H-indeno[1,2-d]oxazol-5-yl]-N4-[4-(pyridin-2-ylmethoxy)phenyl]-2,4-pyrimidinediamine]	1000 to 5000
Cc1cnc(Nc2ccc3c(c2)[C@H]2NC(=O)O[C@H]2C3)nc1Nc1ccc(OCc2cccnc2)cc1 [Compound 31, 5-Methyl-N2-[(3aR,8aS)-2-oxo-3,3a,8,8a-tetrahydro-2H-indeno[1,2-d]oxazol-5-yl]-N4-[4-(pyridin-3-ylmethoxy)phenyl]-2,4-pyrimidinediamine]	250 to 500
Cc1cnc(Nc2ccc3c(c2)[C@@H]2NC(=O)O[C@@H]2C3)nc1Nc1ccc(OCc2cccnc2)cc1 [Compound 32, 5-Methyl-N2-[(3aS,8aR)-2-oxo-3,3a,8,8a-tetrahydro-2H-indeno[1,2-d]oxazol-5-yl]-N4-[4-(pyridin-3-ylmethoxy)phenyl]-2,4-pyrimidinediamine]	250 to 500
O=C1N[C@H]2c3cc(Nc4ncc(F)c(Nc5ccc(CCc6ccncc6)cc5)n4)ccc3C[C@H]2O1 [Compound 33, 5-Fluoro-N2-[(3aS,8aR)-2-oxo-3,3a,8,8a-tetrahydro-2H-indeno[1,2-d]oxazol-5-yl]-N4-[4-[2-(pyridin-4-yl)ethyl]phenyl]-2,4-pyrimidinediamine]	250 to 500
O=C1N[C@@H]2c3cc(Nc4ncc(Cl)c(Nc5cccc6c5CCC6)n4)ccc3CC2O1 (stereo partly drawn) [Compound 34, 5-Chloro-N4-(indan-4-yl]-5-methyl-N2-[(3aR,8aS)-2-oxo-3,3a,8,8a-tetrahydro-2H-indeno[1,2-d]oxazol-5-yl]-2,4-pyrimidinediamine]	≥ 5000
Cc1cnc(Nc2ccc3c(c2)[C@H]2NC(=O)O[C@H]2C3)nc1Nc1cccc2c1CCC2 [Compound 35, N4-(Indan-4-yl]-5-methyl-N2-[(3aR,8aS)-2-oxo-3,3a,8,8a-tetrahydro-2H-indeno[1,2-d]oxazol-5-yl]-2,4-pyrimidinediamine]	< 250
O=C1N[C@@H]2c3cc(Nc4ncc(Cl)c(Nc5cccc6c5CCCC6)n4)ccc3C[C@@H]2O1 [Compound 36, 5-Chloro-N2-[(3aR,8aS)-2-oxo-3,3a,8,8a-tetrahydro-2H-indeno[1,2-d]oxazol-5-yl]-N4-(5,6,7,8-tetrahydronaphthalen-1-yl)2,4-pyrimidinediamine]	250 to 500
Cc1cnc(Nc2ccc3c(c2)[C@H]2NC(=O)O[C@H]2C3)nc1Nc1cccc2c1CCCC2 [Compound 37, 5-Methyl-N2-[(3aR,8aS)-2-oxo-3,3a,8,8a-tetrahydro-2H-indeno[1,2-d]oxazol-5-yl]-N4-(5,6,7,8-tetrahydronaphthalen-1-yl)-2,4-pyrimidinediamine]	< 250
Cc1cnc(Nc2ccc3c(c2)[C@H]2NC(=O)CO[C@H]2C3)nc1Nc1ccc2c(c1)N(C)C(=O)C(C)(C)O2 [Compound 38, 5-Methyl-N2-[(4aR,9aS)-3-oxo-2,3,4,4a,9a-hexahydroindeno[2,1-b][1,4]oxazin-6-yl]-N4-(2,2,4-trimethyl-3-oxo-benz[1,4]oxazin-6-yl)-2,4-pyrimidinediamine]	250 to 500
Cc1cnc(Nc2ccc3c(c2)[C@H]2NC(=O)CO[C@H]2C3)nc1Nc1ccc(CNS(=O)(=O)C2CC2)cc1 [Compound 39, N4-[4-[[N-(Cyclopropylsulfonyl)amino]methyl]phenyl]-5-methyl-N2-[(4aR,9aS)-3-oxo-2,3,4,4a,9a-hexahydroindeno[2,1-b][1,4]oxazin-6-yl]-2,4-pyrimidinediamine]	250 to 500
O=C1CO[C@H]2Cc3ccc(Nc4ncc(Cl)c(Nc5ccc(CNS(=O)(=O)C6CC6)cc5)n4)cc3[C@H]2N1 [Compound 40, 5-Chloro-N4-[4-[[N-(cyclopropylsulfonyl)amino]methyl]phenyl]-N2-[(4aR,9aS)-3-oxo-2,3,4,4a,9a-hexahydroindeno[2,1-b][1,4]oxazin-6-yl]-2,4-pyrimidinediamine]	< 250
